Laboratory results: ChEMBL document CHEMBL1201862, “PubChem BioAssay data set” (2004)
The source made the active and inactive calls.

Assays:
[1] = biological target: Hexokinase HKDC1 (Homo sapiens, UniProt Q2TB90); experiment: HKDC1 hexokinase inhibitors, SAR follow-up, biochemical, set 2 (AID 588355); format: functional
[2] = biological target: Hexokinase-1 (Homo sapiens, UniProt P19367); experiment: HK1 enzyme inhibition by HKDC1 hits, SAR follow-up, selectivity assay for HKDC1 inhibitor project, biochemical, set 2, resazurin fluorescence coupled readout (AID 588356); format: functional
[3] = biological target: Mu-type opioid receptor (Homo sapiens, UniProt P35372); experiment: (§1) Counterscreen for agonists of heterodimerization of the mu 1 (OPRM1) and delta 1 (OPRD1) opioid receptors: Luminescence-based cell-based high throughput dose response assay to identify agonists of OPRM1 homodimerization.; format: functional
[4] = biological target: 5-hydroxytryptamine receptor 5A (Homo sapiens, UniProt P47898); experiment: Counterscreen for agonists of OPRM1-OPRD1 heterodimerization: luminescence-based cell-based high throughput dose response assay to identify agonists of 5-hydroxytryptamine (serotonin) 5A receptor (HTR5A). [Related pubchem assays (depositor defined):AID504326, AID504355, AID504692, AID504904, AID504905]; format: functional
[5] = biological target: T1, Short transient receptor potential channel 4 (Mus musculus, UniProt Q9QUQ5); experiment: mouse TRPC4 channel activators, dose response, cell-based, HEK293 TRPC4/mu-opioid, Fluo-4 calcium (AID 434937); format: functional
T1 sequence (Q9QUQ5 whole entry): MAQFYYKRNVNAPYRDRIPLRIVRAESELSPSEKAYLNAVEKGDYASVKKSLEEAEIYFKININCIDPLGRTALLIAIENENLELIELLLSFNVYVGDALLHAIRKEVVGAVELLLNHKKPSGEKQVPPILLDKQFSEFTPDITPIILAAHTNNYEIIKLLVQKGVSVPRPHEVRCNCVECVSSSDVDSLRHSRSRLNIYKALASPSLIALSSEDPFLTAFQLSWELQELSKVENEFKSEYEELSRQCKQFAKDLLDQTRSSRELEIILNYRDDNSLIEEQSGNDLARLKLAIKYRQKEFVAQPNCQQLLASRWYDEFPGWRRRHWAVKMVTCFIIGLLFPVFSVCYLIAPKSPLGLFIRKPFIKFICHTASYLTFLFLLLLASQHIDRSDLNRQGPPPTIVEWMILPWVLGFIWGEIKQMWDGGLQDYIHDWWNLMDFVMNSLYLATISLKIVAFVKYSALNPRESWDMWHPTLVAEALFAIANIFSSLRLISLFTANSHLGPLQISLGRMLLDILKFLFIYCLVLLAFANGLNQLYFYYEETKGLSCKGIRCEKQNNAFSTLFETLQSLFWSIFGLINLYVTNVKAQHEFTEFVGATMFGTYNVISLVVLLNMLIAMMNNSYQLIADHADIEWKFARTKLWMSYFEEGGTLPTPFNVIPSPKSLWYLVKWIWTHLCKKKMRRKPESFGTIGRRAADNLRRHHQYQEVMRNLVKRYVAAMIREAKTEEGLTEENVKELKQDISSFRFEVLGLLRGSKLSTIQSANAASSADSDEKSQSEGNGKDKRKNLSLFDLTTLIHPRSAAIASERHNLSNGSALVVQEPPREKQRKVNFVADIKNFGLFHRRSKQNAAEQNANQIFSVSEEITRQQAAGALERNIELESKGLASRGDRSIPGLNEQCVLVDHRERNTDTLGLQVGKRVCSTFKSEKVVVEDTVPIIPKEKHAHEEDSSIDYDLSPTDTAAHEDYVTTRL

[6] = biological target: Delta-type opioid receptor (Homo sapiens, UniProt P41143); experiment: as §1, with “of OPRD1” for “of OPRM1”, “homodimerization. [Related pubchem assays (depositor defined):AID504326, AID504355, AID504692, AID504904, AID504905]” for “homodimerization.”; format: functional
[7] = biological target: NS3 (Hepatitis C virus, UniProt A3EZJ3); experiment: PubChem AID 2173; parameters: species or system Hepacivirus hominis
[8] = biological target: T2, Mannose-6-phosphate isomerase (Homo sapiens, UniProt P34949); experiment: inhibitors of human PMI, primary screen, biochemical, fluorescence intensity, coupled assay (AID 1209)
T2 sequence (P34949 whole entry): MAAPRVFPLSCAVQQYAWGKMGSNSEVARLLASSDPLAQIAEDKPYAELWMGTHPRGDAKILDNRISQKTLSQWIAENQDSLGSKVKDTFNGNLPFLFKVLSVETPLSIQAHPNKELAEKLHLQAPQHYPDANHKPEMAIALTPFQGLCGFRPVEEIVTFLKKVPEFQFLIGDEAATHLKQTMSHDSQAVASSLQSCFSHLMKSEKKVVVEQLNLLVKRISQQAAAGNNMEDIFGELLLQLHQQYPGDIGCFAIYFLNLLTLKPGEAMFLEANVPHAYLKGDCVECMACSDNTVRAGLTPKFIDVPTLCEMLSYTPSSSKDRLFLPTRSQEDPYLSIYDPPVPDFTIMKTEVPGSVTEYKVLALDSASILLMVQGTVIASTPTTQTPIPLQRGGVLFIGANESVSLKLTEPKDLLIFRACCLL

[9] = biological target: T3, Runt-related transcription factor 1/Core-binding factor subunit beta (Homo sapiens, UniProt Q01196+Q13951); experiment: inhibitors of RUNX1 Runt–CBFb-SMMHC binding, primary screen, biochemical, FRET, Cerulean-Runt, Venus-CBFb-SMMHC, uHTS (AID 1434); format: protein assay;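 note: partner is the CBFb-SMMHC leukemia fusion protein rather than wild-type CBFb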
[10] = biological target: Large T antigen (Simian virus 40, UniProt P03070); format: functional, Betapolyomavirus macacae;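 note: Confirmatory-stage PubChem screen for compounds that inhibit SV40 T antigen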
[11] = NIH-3T3 fibroblast cytotoxicity, dose response, cytotoxicity control, cell-based, fluorescence, Alamar Blue, secondary assay (AID 2327); format: functional;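 note: NIH-3T3 mouse fibroblasts cultured with fluconazole at 8 µg/mL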
[12] = biological target: Bcl-2-like protein 1 (Homo sapiens, UniProt Q07817); experiment: BCL-XL inhibitors, dose response, selectivity assay for MCL1 inhibitor project, biochemical, fluorescence polarization, 1536-well (AID 2218)
[13] = Counterscreen for AddAB inhibitors: absorbance-based bacterial cell-based high throughput dose response assay for inhibitors of bacterial viability. [Related pubchem assays (depositor defined):AID435030, AID449728, AID449731, AID488942, AID488955, AID488956]; format: functional
[14] = C. albicans growth with fluconazole, confirmation, fluorescence, retest (AID 2467); format: functional, cell-based
[15] = biological target: T3, Runt-related transcription factor 1/Core-binding factor subunit beta; experiment: inhibitors of RUNX1 Runt–CBFb-SMMHC binding, biochemical, TR-FRET (AID 1438); format: protein assay
[16] = biological target: Transitional endoplasmic reticulum ATPase (Homo sapiens, UniProt P55072, C522A); experiment: C522A mutant p97 ATPase inhibitors, dose response, counter-screen for p97 inhibitor project, biochemical, luminescence (AID 1544)
[17] = Late-stage probe development counterscreen for inhibitors of the Hepatitis C Virus non-structural protein 3 helicase (NS3): luminescence-based cell-based dose response assay to determine whether compounds that inhibit replication of HCV RNA replicon are cytotoxic. [Related pubchem assays (depositor defined):AID1800, AID1830, AID1845, AID1943, AID1945, AID2172, AID2173, AID2474, AID2476]; format: functional
[18] = biological target: Exodeoxyribonuclease V (Escherichia coli (strain K12), UniProt P04993+P07648+P08394); experiment: E. coli RecBCD inhibitors, dose response, counter-screen for AddAB inhibitor project, absorbance, V66 E. coli, mutant T4 phage (AID 492957); format: functional, cell-based, Escherichia coli str. K-12 substr. MG1655
[19] = biological target: T4, Low molecular weight phosphotyrosine protein phosphatase (Homo sapiens, UniProt P24666); format: functional; conditions: read-out: IC50_Mean;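 note: Dose-response confirmation assay measuring inhibition of LMPTP enzyme activity by fluorescence intensity read-out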
T4 sequence (P24666 whole entry): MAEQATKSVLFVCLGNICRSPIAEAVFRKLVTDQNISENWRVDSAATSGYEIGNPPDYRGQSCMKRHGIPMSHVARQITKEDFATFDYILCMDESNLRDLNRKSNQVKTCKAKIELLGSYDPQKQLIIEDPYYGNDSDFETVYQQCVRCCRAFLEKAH

[20] = biological target: T5, Induced myeloid leukemia cell differentiation protein Mcl-1 (Homo sapiens, UniProt Q07820); experiment: MCL1-BIM BH3 interaction inhibitors, dose response, biochemical, fluorescence polarization, BIM-BH3 peptide, 1536-well (AID 2217)
[21] = biological target: Transitional endoplasmic reticulum ATPase (Homo sapiens, UniProt P55072); experiment: p97 ATPase inhibitors, dose response, biochemical (AID 1534)
[22] = biological target: T5, Induced myeloid leukemia cell differentiation protein Mcl-1; format: functional
[23] = test system: HeLa; experiment: HeLa cell cytotoxicity, dose response, cytotoxicity control for MITF activator project, CellTiter-Glo luminescence, cherry-pick samples (AID 540259); format: functional, cell-based; conditions: Homo sapiens
[24] = biological target: Cysteine protease ATG4B (Homo sapiens, UniProt Q9Y4P1); format: functional;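 note: Fluorescence-based dose-response confirmation assay measuring inhibition of ATG4B activity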
[25] = biological target: Phospholipase A2 (Homo sapiens, UniProt P04054); format: functional;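 note: confirmatory dose-response counterscreen on phospholipase A2, testing hits that came from an ultra-high-throughput screen for ATG4B inhibitors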
[26] = inhibitors of clade B AD8 Env fusion, dose response, cell-based, cherry-pick (AID 652062); format: functional;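 note: luciferase signal from cell-cell fusion driven by HIV-1 clade B AD8 Env; potency is for inhibitors of fusion seen as a drop in luminescence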
[27] = inhibitors of HIV Env-driven cell fusion, dose response, cherry-pick (AID 652057); format: functional, cell-based
[28] = Luminescence Cell-Based Dose Response HTS to Identify Inhibitors of 5'UTR Stem-Loop Driven Prion Protein mRNA Translation in H4 Neuroglioblastoma Cells. [Related pubchem assays: 1827 (Project Summary), 1813 (Primary HTS)]; format: functional
[29] = test system: HEK293; experiment: inhibitors of LMP1-driven NF-kB reporter, dose response, cell-based, HEK293, luciferase, cherry-pick (AID 588343); format: functional; conditions: Homo sapiens
[30] = biological target: Luciferin 4-monooxygenase (Photuris pensylvanica, UniProt Q27757); experiment: firefly luciferase enzyme inhibitors, dose response, counter-screen for HSF-1 reporter inhibitor project, biochemical, Cell Titer Glo, luminescence, cherry-picks (AID 588847)
[31] = inhibitors of firefly luciferase expression or activity, dose response, H4 neuroglioma cells, luminescence (AID 1990); format: functional, cell-based
[32] = off-target signal loss in HeLa-CEM21 co-culture – HeLa F-luc CTL cells, cherry-picked, counter-screen for HIV-1 Env fusion inhibitor project, dose response (AID 652040); format: functional, cell-based;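 note: potency for signal decrease marking cytotoxic or nonspecific inhibition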
[33] = inhibitors of SNCA 5'UTR-driven reporter translation, confirmation, H4 neuroglioma cells, luminescence (AID 1988); format: functional, cell-based
[34] = biological target: Voltage-gated inwardly rectifying potassium channel KCNH2 (Homo sapiens, UniProt Q12809); conditions: Potency;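 note: confirmatory quantitative high-throughput screen measuring inhibition of hERG channel activity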
[35] = biological target: Phospholipase D1 (Homo sapiens, UniProt Q13393); experiment: PLD1 inhibitor potency in cells, dose response (AID 602151); format: functional;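 note: cellular PLD1 assay in Calu-1 cells stimulated with PMA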
[36] = biological target: Phospholipase D2 (Homo sapiens, UniProt O14939); experiment: PLD2 inhibitor potency in cells, dose response (AID 602147); format: functional;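 note: cellular assay in HEK293 cells overexpressing GFP-tagged PLD2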
[37] = Luminescence Cell-Based Dose Response Follow up to Identify Inhibitors of Platelet Dense Granule Release. [Related pubchem assays (depositor defined):AID1663, AID1678, AID2398]; format: functional
[38] = biological target: Short transient receptor potential channel 6 (Mus musculus, UniProt Q61143); experiment: TRPC6 inhibition potency of TRPC4 inhibitor analogs, dose response, selectivity assay for selective TRPC4 inhibitor project, HEK293 cells, membrane potential dye, IC50 (AID 492987); format: functional, cell-based
[39] = biological target: T1, Short transient receptor potential channel 4; experiment: SAR Analysis for the identification of selective inhibits of the transient receptor potential cation channel C4 (TRPC4): Automated Electrophysiology_2. [Related pubchem assays (depositor defined):AID2256]; format: functional

T5 sequence (Q07820 whole entry): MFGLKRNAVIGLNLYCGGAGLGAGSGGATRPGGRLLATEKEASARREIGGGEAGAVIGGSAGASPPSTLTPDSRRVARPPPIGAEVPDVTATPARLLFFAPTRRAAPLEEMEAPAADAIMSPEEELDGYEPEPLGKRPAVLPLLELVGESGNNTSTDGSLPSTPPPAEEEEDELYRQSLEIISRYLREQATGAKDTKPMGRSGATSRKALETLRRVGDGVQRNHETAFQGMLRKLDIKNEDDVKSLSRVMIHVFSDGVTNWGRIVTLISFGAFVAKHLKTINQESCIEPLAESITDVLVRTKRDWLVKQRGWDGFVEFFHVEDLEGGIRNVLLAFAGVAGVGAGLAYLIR
T3 sequence (Q01196 whole entry, the tested form may be a part): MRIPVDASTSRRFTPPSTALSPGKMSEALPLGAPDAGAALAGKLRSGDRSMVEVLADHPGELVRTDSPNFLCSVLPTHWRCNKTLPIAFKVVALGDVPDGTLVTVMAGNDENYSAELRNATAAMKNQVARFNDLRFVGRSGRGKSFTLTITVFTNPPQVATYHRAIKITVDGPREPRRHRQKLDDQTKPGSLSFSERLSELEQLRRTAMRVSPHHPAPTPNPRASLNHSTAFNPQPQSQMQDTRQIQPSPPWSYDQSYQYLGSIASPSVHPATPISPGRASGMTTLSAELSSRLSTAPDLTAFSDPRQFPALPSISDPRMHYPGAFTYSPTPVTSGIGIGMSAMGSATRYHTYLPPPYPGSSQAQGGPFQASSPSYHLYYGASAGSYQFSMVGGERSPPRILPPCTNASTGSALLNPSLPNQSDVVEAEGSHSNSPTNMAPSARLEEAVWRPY
T3 sequence (Q13951 whole entry, the tested form may be a part): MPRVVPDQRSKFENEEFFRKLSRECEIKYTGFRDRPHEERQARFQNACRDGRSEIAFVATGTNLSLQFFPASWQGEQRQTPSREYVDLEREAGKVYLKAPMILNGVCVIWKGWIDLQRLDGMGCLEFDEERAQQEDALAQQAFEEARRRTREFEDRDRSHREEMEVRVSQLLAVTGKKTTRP
Sequence of Voltage-gated inwardly rectifying potassium channel KCNH2 (Q12809 whole entry): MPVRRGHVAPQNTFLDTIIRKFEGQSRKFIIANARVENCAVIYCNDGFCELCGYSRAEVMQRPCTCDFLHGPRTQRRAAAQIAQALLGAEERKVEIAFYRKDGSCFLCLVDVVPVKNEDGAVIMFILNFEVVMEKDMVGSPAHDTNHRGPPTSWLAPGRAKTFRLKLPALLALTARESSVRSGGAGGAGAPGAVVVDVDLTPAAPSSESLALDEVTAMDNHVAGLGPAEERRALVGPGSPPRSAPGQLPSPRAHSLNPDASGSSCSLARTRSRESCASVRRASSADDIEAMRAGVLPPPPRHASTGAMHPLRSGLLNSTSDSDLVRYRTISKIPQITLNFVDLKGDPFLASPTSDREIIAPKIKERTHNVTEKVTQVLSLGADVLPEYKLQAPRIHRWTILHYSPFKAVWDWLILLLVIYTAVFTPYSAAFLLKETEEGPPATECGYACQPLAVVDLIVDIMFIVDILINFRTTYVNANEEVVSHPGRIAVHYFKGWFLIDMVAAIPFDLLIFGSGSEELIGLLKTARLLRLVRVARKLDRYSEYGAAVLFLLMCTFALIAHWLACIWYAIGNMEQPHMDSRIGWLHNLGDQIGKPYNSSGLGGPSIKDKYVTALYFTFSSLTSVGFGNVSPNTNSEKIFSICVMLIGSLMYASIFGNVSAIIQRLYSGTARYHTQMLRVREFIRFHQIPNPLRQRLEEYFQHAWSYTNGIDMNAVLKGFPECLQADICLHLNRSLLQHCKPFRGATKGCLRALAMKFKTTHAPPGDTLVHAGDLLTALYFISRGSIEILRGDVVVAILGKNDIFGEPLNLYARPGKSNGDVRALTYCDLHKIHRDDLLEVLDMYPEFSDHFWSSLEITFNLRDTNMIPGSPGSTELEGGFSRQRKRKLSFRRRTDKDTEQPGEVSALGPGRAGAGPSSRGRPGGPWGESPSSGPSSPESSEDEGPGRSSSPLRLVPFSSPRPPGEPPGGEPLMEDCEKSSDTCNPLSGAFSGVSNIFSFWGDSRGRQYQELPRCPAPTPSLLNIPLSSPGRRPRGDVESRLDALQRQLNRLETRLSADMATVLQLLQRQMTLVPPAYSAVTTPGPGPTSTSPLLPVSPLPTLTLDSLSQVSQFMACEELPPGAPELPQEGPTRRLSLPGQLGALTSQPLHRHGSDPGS
Sequence of Delta-type opioid receptor (P41143 whole entry): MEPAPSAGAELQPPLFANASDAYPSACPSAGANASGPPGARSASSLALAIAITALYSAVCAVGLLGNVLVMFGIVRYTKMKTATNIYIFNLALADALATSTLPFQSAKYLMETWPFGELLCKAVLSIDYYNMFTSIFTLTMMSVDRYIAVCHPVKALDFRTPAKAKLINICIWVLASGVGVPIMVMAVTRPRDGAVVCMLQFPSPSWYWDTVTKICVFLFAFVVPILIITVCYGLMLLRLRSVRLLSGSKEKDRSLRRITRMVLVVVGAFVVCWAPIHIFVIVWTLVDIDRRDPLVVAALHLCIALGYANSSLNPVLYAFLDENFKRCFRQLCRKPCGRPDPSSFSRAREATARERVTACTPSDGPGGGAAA
Sequence of 5-hydroxytryptamine receptor 5A (P47898 whole entry): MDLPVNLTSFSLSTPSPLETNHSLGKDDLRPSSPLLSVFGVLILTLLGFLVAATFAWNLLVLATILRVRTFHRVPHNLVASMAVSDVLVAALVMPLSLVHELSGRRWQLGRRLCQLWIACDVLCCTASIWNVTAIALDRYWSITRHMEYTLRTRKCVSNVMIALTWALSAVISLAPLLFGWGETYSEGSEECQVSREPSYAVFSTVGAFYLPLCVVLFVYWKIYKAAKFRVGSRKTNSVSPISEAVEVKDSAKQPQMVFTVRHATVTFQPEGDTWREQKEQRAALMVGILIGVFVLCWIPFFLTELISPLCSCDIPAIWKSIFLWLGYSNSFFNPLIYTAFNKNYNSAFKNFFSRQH
Sequence of Short transient receptor potential channel 6 (Q61143 whole entry): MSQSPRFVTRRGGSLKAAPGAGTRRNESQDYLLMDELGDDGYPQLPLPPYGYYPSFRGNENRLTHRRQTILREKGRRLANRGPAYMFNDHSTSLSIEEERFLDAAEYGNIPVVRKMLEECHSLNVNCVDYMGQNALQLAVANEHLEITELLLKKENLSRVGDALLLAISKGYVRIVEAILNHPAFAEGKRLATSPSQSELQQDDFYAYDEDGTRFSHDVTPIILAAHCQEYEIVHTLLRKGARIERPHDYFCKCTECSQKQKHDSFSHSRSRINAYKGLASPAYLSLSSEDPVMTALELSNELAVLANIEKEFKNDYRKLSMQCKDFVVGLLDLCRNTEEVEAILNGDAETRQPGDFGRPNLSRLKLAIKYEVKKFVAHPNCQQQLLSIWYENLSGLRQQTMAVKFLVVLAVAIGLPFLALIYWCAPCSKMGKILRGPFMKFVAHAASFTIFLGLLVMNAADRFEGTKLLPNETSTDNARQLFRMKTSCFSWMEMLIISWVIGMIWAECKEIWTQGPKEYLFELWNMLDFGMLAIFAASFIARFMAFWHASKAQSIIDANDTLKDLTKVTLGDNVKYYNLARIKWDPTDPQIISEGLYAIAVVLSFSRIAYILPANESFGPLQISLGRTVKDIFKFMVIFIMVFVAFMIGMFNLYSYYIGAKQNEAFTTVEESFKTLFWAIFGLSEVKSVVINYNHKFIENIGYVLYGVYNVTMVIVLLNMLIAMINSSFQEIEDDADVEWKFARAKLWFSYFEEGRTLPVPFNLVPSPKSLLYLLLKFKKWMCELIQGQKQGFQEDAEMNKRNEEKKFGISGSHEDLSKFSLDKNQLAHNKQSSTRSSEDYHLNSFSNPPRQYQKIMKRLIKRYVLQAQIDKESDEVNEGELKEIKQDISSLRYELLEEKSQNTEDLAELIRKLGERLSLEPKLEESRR
Sequence of NS3 (A3EZJ3 whole entry): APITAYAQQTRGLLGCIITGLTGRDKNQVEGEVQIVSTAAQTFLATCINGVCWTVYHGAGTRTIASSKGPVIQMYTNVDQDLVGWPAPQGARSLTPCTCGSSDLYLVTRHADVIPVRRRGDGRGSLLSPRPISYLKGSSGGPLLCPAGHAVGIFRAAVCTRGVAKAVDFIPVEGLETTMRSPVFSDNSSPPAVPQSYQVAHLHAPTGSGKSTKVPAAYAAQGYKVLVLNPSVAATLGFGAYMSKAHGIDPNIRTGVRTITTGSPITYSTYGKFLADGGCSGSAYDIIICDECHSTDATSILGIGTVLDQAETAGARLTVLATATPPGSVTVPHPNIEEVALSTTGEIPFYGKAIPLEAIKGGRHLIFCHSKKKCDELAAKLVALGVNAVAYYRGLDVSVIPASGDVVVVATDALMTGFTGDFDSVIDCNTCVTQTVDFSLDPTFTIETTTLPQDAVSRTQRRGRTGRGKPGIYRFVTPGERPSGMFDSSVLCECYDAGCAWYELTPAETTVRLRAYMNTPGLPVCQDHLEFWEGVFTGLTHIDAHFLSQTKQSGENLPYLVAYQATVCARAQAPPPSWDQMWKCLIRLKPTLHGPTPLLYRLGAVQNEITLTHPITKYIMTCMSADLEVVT
Sequence of Cysteine protease ATG4B (Q9Y4P1 whole entry): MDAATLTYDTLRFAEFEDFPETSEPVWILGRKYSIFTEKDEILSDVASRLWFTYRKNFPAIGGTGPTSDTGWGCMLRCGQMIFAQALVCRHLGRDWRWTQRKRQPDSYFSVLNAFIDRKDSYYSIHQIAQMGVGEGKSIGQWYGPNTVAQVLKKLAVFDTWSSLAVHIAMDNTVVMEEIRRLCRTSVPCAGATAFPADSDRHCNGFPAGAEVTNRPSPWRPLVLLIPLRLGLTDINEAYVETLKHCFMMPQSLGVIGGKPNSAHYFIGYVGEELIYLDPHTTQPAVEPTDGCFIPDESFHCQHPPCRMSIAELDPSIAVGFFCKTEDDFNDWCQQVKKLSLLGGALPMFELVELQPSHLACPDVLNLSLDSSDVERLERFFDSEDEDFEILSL
Sequence of Phospholipase A2 (P04054 whole entry, the tested form may be a part): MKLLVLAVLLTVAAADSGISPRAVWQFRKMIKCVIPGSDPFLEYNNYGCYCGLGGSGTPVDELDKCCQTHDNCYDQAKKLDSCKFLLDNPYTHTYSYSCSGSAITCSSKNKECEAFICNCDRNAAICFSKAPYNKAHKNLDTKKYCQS

Structure (SMILES): CCCCN1C(=O)C(NC(C)=O)c2cc(OC)ccc21 (centres undefined)
- IC50 [1]: > 80 µM (inactive)
- IC50 [2]: > 80 µM (inactive)

Structure (SMILES): CCOC(=O)C1(CCOc2ccccc2)CCN(Cc2ccc3c(c2)OCCO3)CC1
- EC50 [3]: > 92.5 µM (inactive)
- EC50 [4]: > 92.5 µM (inactive)
- EC50 [5]: 1.33 µM (active)
- EC50 [6]: > 92.5 µM (inactive)

Structure (SMILES): COc1cccc(-n2c(SCc3cc(=O)oc4cc(O)c(O)cc34)nc3ccccc3c2=O)c1
- IC50 [7]: 2.31 µM (active)
- IC50 [8]: 15.6 µM (active)
- IC50 [9]: 2 µM (active)
- IC50 [10]: > 100 µM (active)
- EC50 [11]: > 150 µM (inactive)
- IC50 [12]: > 109 µM (not active)
- IC50 [13]: > 119 µM (inactive)
- EC50 [14]: > 38 µM (not active)
- IC50 [15]: 19.3 µM (active)
- IC50 [16]: > 50 µM (not active)
- CC50 [17]: > 100 µM (inactive)
- IC50 [18]: > 119 µM (inactive)
- IC50 [19]: 53.1 µM (inactive)
- IC50 [20]: > 109 µM (not active)
- IC50 [21]: 21.1 µM (not active)
- IC50 [22]: 2.72 µM (active)

Structure (SMILES): Cc1cccc(-c2cc(N)n(-c3ccccc3)n2)c1
- AC50 [23]: > 350 µM (inactive)

Structure (SMILES): O=C(O)CCn1cc(/C=C\C(=O)c2ccc(Cl)cc2)c(-c2cccc(Br)c2)n1
- IC50 [24]: 15.7 µM (active)
- IC50 [25]: 14.9 µM (active)

Structure (SMILES): CCOc1ccc(OCc2cccc(C(=O)N/N=C/c3cccnc3)c2)cc1
- AC50 [26]: 3.31 µM (active)
- AC50 [27]: 2.3 µM (active)
- EC50 [28]: 12.8 µM (active)
- AC50 [29]: 1.29 µM (active)
- AC50 [30]: 31.9 µM (active)
- EC50 [31]: 9.06 µM (active)
- AC50 [32]: 1.46 µM (active)
- EC50 [33]: 9.36 µM (active)

Structure (SMILES): CCCCN1CCC(n2c(=O)[nH]c3ccccc32)CC1
- AC50 [34]: 11.2 µM (inconclusive)

Structure (SMILES): CC(C)[C@@H](CN1CCC2(CC1)C(=O)NCN2c1ccccc1)NC(=O)c1cc2cc(F)ccc2[nH]1
- IC50 [35]: 26 nM (active)
- IC50 [36]: 480 nM (active)

Structure (SMILES): Cn1c(N)c(C#N)c(-c2ccccc2)c(C#N)c1=O
- EC50 [37]: 1.74 µM (active)

Structure (SMILES): CCc1ccc2nc(N3CCCCC3)cc(C)c2c1
- IC50 [38]: 15 µM (active)
- IC50 [39]: 3.73 µM (active)
